Experiments:
[1] = tested on: terminal and intermediate hair follicles from affected and non-affected areas of FPHL donors; assay: Female pattern hair loss (FPHL) donor hair follicle organ culture (ex vivo model), Example 9; format: cell-based, human; details: 3 μM; for microscopic hair cycle staging: anagen: HFs from non-affected (terminal) and affected (terminal and intermediate) scalp, preliminary, 2 donors; for hair matrix keratinocytes proliferation: terminal HFs from non-affected and affected scalp; for versican expression: terminal and intermediate HFs from non-affected scalp
Description: Example 7 is repeated for female donor subjects suffering from pattern hair loss (FPHL), with a few modifications. In brief, terminal and intermediate hair follicles (HF) from affected (vertex) and non-affected (occipital) areas were obtained from female donors diagnosed to have FPHL (FIG. 34). After microdissection from skin as described in the art (Edelkamp et al., Methods Mol Biol, 2020, 2154:105-119; and Langan et al., Exp Dermatol, 2015 December; 24(12):903-1), HFs are placed in adequate culture medium and allowed a 24 h rest period to allow them to recover from the trauma of microdissection. Test substance (either vehicle (0.03% EtOH) or E4 at concentrations of 3 μM) was added to the medium at the end of the 24 h. Total culturing time was 3-5 days depending on the stage of the HFs in the vehicle group. The experimental design is depicted in FIG. 35. The same parameters as those described in Example 7 were investigated.
[…] Three additional donors still have to be collected.

[2] = tested on: human anagen VI scalp HFs (healthy female donors); assay: Healthy female donor hair follicle organ culture (ex vivo model), Example 7; format: cell-based; details: for hair shaft production: vs vehicle
Protocol: 12-44 full-length frontotemporal hair follicles (HF) were obtained from four healthy human female donors >50 years old. […] Donor 2:29; Donor 3:44; Donor 4:32). After microdissection from skin as described in the art (Edelkamp et al., Methods Mol Biol, 2020, 2154:105-119; and Langan et al., Exp Dermatol, 2015 December; 24(12):903-1), HFs were placed in adequate culture medium and allowed a 24 h rest period to allow them to recover from the trauma of microdissection. Test substance (either vehicle (0.3% EtOH) or E4 at concentrations of 30 μM, 3 μM or 300 nM) was added to the medium at the end of the 24 h. Total culturing time was 5-9 days depending on the stage of the HFs in the vehicle group. The experimental design for a 6-days HF organ culture experiment is depicted in FIG. 9.
This model allows to assess if E4 treatment is able to prolong anagen and/or to delay catagen initiation in healthy female subjects. Clinically, hair loss is associated with a reduction of HFs in anagen or with a shortening of anagen duration. Promoting anagen might thus limit hair loss. The following parameters were investigated:
To determine the HF length, each HF was measured from the end of the bulb connective tissue sheath to the end of the distal outer root sheath (ORS), using a digital light microscope at 50× magnification (VHX 900 Keyence Corporation, Osaka, Japan) and the affiliated software (Edelkamp et al., Methods Mol Biol, 2020, 2154:105-119; and Langan et al., Exp Dermatol, 2015 December; 24(12):903-1). Measurements were obtained at baseline, after 24 h rest period and subsequently every 24-48 h during the entire duration of the experiment. Elongation is expressed as millimeters of growth and/or as percentage elongation from the baseline measurement.
Hair cycle staging and calculation of hair cycle score is indicative of hair cycle progression and anagen-catagen transition (Langan et al., Exp Dermatol, 2015). Hair cycle staging and hair cycle scoring was performed at the end of the culture. The hair cycle stage of each HF was determined according to several established macroscopic and microscopic parameters (Langan et al Exp Dermatol, 2015). Microscopic hair cycle staging was determined using Ki-67/TUNEL immunohistology and Masson-Fontana histochemistry. Hair cycle staging was analyzed by calculating the percentage of HFs in each hair cycle stage. Hair cycle score was determined by giving an arbitrary score to each hair cycle stage as following: anagen: 100, early catagen: 200, mid catagen: 300, late catagen: 400, dystrophic 500.
Germinative hair matrix keratinocytes proliferate mostly during anagen. […] Apoptosis of hair matrix keratinocytes is used as an additional indicator of anagen/catagen transition.
Proliferation was assessed by quantification of the percentage of hair matrix keratinocytes in a clearly specified area (germinative hair matrix keratinocytes, below the Auber's line) that were positive for the proliferation marker Ki67, whereas apoptosis was assessed using TUNEL (TdT-mediated dUTP-biotin nick-end labelling) immunofluorescence in the same keratinocyte population (below the Auber's line) and in the precortical hair matrix keratincoytes (above the Auber's line) (Langan et al., Exp Dermatol 2015) (FIG. 11).
Alkaline phosphatase is an indicator of DP inductivity (Yang, J Dermatol Sci, 2010 January; 57(1):2-11). Alkaline phosphatase in situ activity was measured in the DP.
Versican, a large chondroitin sulfate proteoglycan molecule, is expressed in DP in anagen HFs and diminishes in catagen HFs and its expression correlates with hair inductive properties (Yang, J Dermatol Sci 2010). Versican intensity was analyzed in the DP.
CD34 is a marker expressed by the progeny of HF bulge stem cells. It is expressed in the most external layer of the outer root sheet (ORS) below the isthmus (sub-bulge to suprabulbar regions) (Purba et al., BioEssays, 2014 May; 36(5):513-25). […]

[3] = intermediate HFs from affected scalp
[4] = intermediate HFs from non-affected area
[5] = intermediate HFs from non-affected scalp
[6] = intermediate HFs from non-affected scalp, listed as estetrol
[7] = terminal HFs from non-affected scalp
[8] = terminal HFs from non-affected scalp, listed as estetrol
[9] = 300 nM and 30 μM, tendentially vs vehicle
[10] = 300 nM, 3 μM, 30 μM, listed as Estetrol
[11] = 3 μM, significantly vs vehicle, listed as estetrol

SMILES: C[C@]12CC[C@@H]3c4ccc(O)cc4CC[C@H]3[C@@H]1[C@@H](O)[C@@H](O)[C@@H]2O [Formulation E4, 1,3,5 (10)-estratrien-3,15alpha,16alpha,17beta-tetrol]
- hair matrix keratinocytes apoptosis [1]: without affecting hair matrix keratinocytes apoptosis
- dermal papilla inductivity (versican expression and alkaline phosphatase activity) ([1]; HFs from affected area): not strikingly altered
- microscopic hair cycle staging: anagen [1]: prolonged anagen
- microscopic hair cycle staging: anagen ([1]; listed as estetrol): prolongs anagen
- density of dermal papilla cells [1, 3]: tendentially increased the density
- total number of dermal papilla cells [1, 3]: tendentially increased
- density of dermal papilla cells [1, 4]: tendentially decreases the density
- total number of cells in the dermal cup [1, 4]: increases
- K15 expression, bulge basal layer [1, 5]: tendentially increased K15 expression
- area size of the dermal papilla [1, 5]: tendentially increased
- density of dermal papilla stalk cells [1, 5]: tendentially decreased the density of dermal papilla stalk cells
- total number of cells of the dermal papilla [1, 5]: tendentially increased the total number of cells
- area size of the dermal papilla [1, 6]: increases
- density of dermal papilla stalk cells [1, 6]: tendentially decreased
- total number of cells of the dermal papilla [1, 6]: increases the total DP cell number
- proliferation of K15+ cells, bulge basal layer ([1]; terminal HFs from affected scalp): increased proliferation of K15+ cells
- hair matrix keratinocytes proliferation [1]: tendentially increased hair matrix keratinocytes proliferation
- hair matrix keratinocytes proliferation ([1]; listed as estetrol): tendentially increases hair matrix keratinocytes proliferation
- proliferation of K15+ cells, suprabulbar outer root sheath ([1]; terminal HFs from non-affected and intermediate HFs from affected scalp): increased proliferation of K15+ cells
- density of dermal papilla stalk cells ([1]; terminal HFs from non-affected area): without influencing their density
- K15 expression, suprabulbar outer root sheath [1, 7]: tendentially increased K15 expression
- area size of the dermal papilla stalk [1, 7]: significantly decreased
- number of K15 positive cells, suprabulbar outer root sheath [1, 7]: tendentially increased
- total number of cells in the dermal cup [1, 7]: significantly reduced the total number of cells in the dermal cup
- total number of cells of the dermal papilla stalk [1, 7]: significantly decreased the total number of cells
- area size of the dermal papilla stalk [1, 8]: significantly decreases
- total number of cells in the dermal cup [1, 8]: significantly reduces
- total number of cells of the dermal papilla stalk [1, 8]: significantly decreases the total number
- alkaline phosphatase activity (dermal papilla inductivity) ([1]; terminal and intermediate HFs from non-affected area): tendential increase
- versican expression [1]: tendentially increased versican expression
- versican expression ([1]; listed as estetrol): tendentially increases versican expression
- total number of cells in the DP stalk ([2]; 300 nM and 3 μM): significantly reduced the total number of cells in the DP stalk
- hair matrix keratinocytes proliferation (Ki-67) [2, 9]: increased hair matrix keratinocytes proliferation
- microscopic hair cycle staging: anagen [2, 9]: prolonged anagen
- percentage of CD34 positive cells, suprabulbar ORS [2, 9]: increased the percentage of CD34 positive cells
- microscopic hair cycle staging: anagen ([2]; 300 nM and 30 μM, tendentially vs vehicle, listed as estetrol): maintain longer HFs in anagen
- density of cells in the inductive dermal cup ([2]; 300 nM, 3 μM, 30 μM): no significant impact on the density of cells in the inductive dermal cup
- hair matrix keratinocytes apoptosis (TUNEL) ([2]; 300 nM, 3 μM, 30 μM): without affecting hair matrix keratinocytes apoptosis
- percentage of K15 positive cells, suprabulbar ORS ([2]; 300 nM, 3 μM, 30 μM): did not have any effect on the percentage of K15 positive cells
- hair matrix keratinocytes apoptosis (TUNEL) [2, 10]: apoptosis was not affected
- hair shaft production ([2]; 300 nM, 3 μM, 30 μM): did not modify hair shaft production
- hair shaft production [2, 10]: does not impact hair shaft production
- proliferation of K15 positive cells (Ki-67), suprabulbar ORS ([2]; 300 nM, significantly vs vehicle): decreased their proliferation
- percentage of K15 positive cells, bulge basal layer ([2]; 3 μM): significantly decreased the percentage of K15 positive cells
- proliferation of K15 positive cells (Ki-67), bulge basal layer ([2]; 3 μM and 300 nM, tendentially vs vehicle): increased their proliferation
- hair matrix keratinocytes proliferation (Ki-67) ([2]; 3 μM, significantly vs vehicle): increased hair matrix keratinocytes proliferation
- microscopic hair cycle staging: anagen ([2]; 3 μM, significantly vs vehicle): prolonged anagen
- percentage of CD34 positive cells, suprabulbar ORS ([2]; 3 μM, significantly vs vehicle): increased the percentage of CD34 positive cells
- hair matrix keratinocytes proliferation (Ki-67) [2, 11]: increases hair matrix keratinocytes proliferation
- microscopic hair cycle staging: anagen [2, 11]: maintain longer HFs in anagen
- proliferation of K15 positive cells (Ki-67), suprabulbar ORS ([2]; 3 μM, tendentially vs vehicle): decreased their proliferation
- proliferation of K15 positive cells (Ki-67), bulge basal layer ([2]; 30 μM, significantly vs vehicle): increased their proliferation
- density of cells in the DP stalk ([2]; all concentrations): tendentially decreased the density of cells
- alkaline phosphatase activity in DP cells ([2]; all tested concentrations): tendentially increased
- density of cells in the DP ([2]; all tested concentrations): did not strikingly affect the density of cells in the DP
- versican expression in DP cells ([2]; all tested concentrations): tendentially increased versican expression

Source: patent US20260283924A1, “TOPICAL COMPOSITIONS FOR PROMOTING HAIR GROWTH” (ESTETRA SRL, priority 2023, published 2026)
